Data reported in ChEMBL document CHEMBL2034966, “Bidirectional fluorescence properties of pyrene-based peroxisome proliferator-activated receptor (PPAR) α/δ dual agonist” (Bioorg Med Chem, 2012).
Substitutions are numbered along the chain they refer to. The source made the active and inactive calls. No cut-off for these calls is given here.

What was measured:
Homo sapiens [1] = species on record: Homo sapiens; assay: Binding affinity to N-terminal His-tagged human PPARdelta W256A mutant ligand binding domain assessed as increase in fluorescence at 500 nM by fluorometry
[2] = system: T1, Peroxisome proliferator-activated receptor alpha (Homo sapiens), Q07869 [L258W]; assay: Binding affinity to N-terminal His-tagged human PPARalpha L258W mutant ligand binding domain assessed as increase in fluorescence at 500 nM by fluorometry
T1 sequence (whole entry): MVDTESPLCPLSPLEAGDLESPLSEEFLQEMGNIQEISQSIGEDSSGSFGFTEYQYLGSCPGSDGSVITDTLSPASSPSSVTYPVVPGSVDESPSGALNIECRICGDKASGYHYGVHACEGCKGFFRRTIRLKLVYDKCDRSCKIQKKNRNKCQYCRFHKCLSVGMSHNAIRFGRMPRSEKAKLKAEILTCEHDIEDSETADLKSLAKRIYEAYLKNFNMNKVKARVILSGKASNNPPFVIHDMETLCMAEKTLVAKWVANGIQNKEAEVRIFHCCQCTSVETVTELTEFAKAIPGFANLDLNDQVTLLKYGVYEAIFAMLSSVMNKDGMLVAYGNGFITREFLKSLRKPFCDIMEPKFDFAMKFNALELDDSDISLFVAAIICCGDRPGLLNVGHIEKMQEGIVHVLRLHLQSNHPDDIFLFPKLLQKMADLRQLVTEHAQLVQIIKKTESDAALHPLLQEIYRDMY

Homo sapiens [3] = species on record: Homo sapiens; assay: Binding affinity to N-terminal His-tagged human PPARdelta W225A mutant ligand binding domain assessed as decrease in fluorescence at 500 nM by fluorometry
Homo sapiens [4] = species on record: Homo sapiens; assay: Binding affinity to N-terminal His-tagged human PPARdelta W264A mutant ligand binding domain assessed as increase in fluorescence at 500 nM by fluorometry
[5] = molecular target: T2, Peroxisome proliferator-activated receptor alpha (Homo sapiens) (UniProt Q07869); assay: Binding affinity to N-terminal His-tagged human PPARalpha ligand binding domain assessed as increase in fluorescence at 500 nM by fluorometry
T2 sequence (whole entry): T1 sequence (whole entry) with W258L

Homo sapiens [6] = species on record: Homo sapiens; assay: Binding affinity to N-terminal His-tagged human PPARdelta W264L mutant ligand binding domain assessed as increase in fluorescence at 500 nM by fluorometry
[7] = molecular target: T3, Peroxisome proliferator-activated receptor delta (Homo sapiens) (UniProt Q03181); assay: Binding affinity to N-terminal His-tagged human PPARdelta ligand binding domain assessed as decrease in fluorescence at 500 nM by fluorometry
T3 sequence (whole entry): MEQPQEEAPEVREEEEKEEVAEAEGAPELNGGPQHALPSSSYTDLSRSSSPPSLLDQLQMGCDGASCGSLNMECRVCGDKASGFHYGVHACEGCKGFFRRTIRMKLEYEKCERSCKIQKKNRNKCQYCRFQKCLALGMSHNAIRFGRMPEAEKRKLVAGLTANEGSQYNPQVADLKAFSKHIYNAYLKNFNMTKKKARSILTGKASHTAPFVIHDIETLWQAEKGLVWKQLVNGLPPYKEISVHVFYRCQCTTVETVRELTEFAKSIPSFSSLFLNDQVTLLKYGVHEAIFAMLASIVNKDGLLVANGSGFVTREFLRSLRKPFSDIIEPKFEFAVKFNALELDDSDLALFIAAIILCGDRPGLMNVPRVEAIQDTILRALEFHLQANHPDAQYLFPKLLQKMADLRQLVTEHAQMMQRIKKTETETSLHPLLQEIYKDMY

Activity (Homo sapiens [1]): inactive
Activity [2]: inactive
Activity (Homo sapiens [3]): Active
Activity (Homo sapiens [4]): Active
Activity [5]: Active
Activity (Homo sapiens [6]): Active
Activity [7]: Active
Compound: CC[C@@H](Cc1ccc(OC)c(CNC(=O)c2ccc3ccc4cccc5ccc2c3c45)c1)C(=O)O
